Data as given in ChEMBL document CHEMBL1201862, “PubChem BioAssay data set” (2004).
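96-well plates; 48 h exposure; 5 concentrations. Endpoints by linear interpolation between flanking doses. Not reached: highest tested concentration assigned. GI50 marks 50% less growth.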 Activity calls are given as the source filed them. Rule as the data show it: active = GI50 up to about 1.1 µM and inactive = higher.

What was measured:
Assay in all cases: NCI anticancer screen, dose series, 48 h
MDA-MB-231 = test system: MDA-MB-231
A498 = test system: A498
HOP-62 = test system: HOP-62
TK-10 = test system: TK-10
SK-MEL-28 = test system: SK-MEL-28
HCC 2998 = test system: HCC 2998
BT-549 = test system: BT-549
SK-OV-3 = test system: SK-OV-3
SF-268 = test system: SF-268
HCT-116 = test system: HCT-116
LOX IMVI = test system: LOX IMVI
M14 = test system: M14
MCF7 = test system: MCF7
786-0 = test system: 786-0
SK-MEL-5 = test system: SK-MEL-5
U-251 = test system: U-251
ACHN = test system: ACHN
OVCAR-3 = test system: OVCAR-3
DU-145 = test system: DU-145
CAKI-1 = test system: CAKI-1

Measured: GI50

O=C(CCCl)NN=C1NCCCN1
inactive: MDA-MB-231 > 100 µM | A498 > 100 µM | HOP-62 > 100 µM | TK-10 > 100 µM | SK-MEL-28 > 100 µM | HCC 2998 > 100 µM | BT-549 > 100 µM | SK-OV-3 > 100 µM | SF-268 > 100 µM | HCT-116 > 100 µM | LOX IMVI > 100 µM | M14 > 100 µM | MCF7 > 100 µM | 786-0 > 100 µM | SK-MEL-5 > 100 µM | U-251 > 100 µM | ACHN > 100 µM | OVCAR-3 > 100 µM | DU-145 > 100 µM

O=C(O)[C@@H]1[C@H](C(=O)O)[C@H](C(=O)O)C[C@@H]1C(=O)O
inactive: MDA-MB-231 > 100 µM | A498 > 100 µM | HOP-62 > 100 µM | TK-10 > 100 µM | SK-MEL-28 > 100 µM | BT-549 > 100 µM | SK-OV-3 > 100 µM | SF-268 > 100 µM | HCT-116 > 100 µM | LOX IMVI > 100 µM | M14 > 100 µM | MCF7 > 100 µM | 786-0 > 100 µM | SK-MEL-5 > 100 µM | CAKI-1 > 100 µM | U-251 > 100 µM | ACHN > 100 µM | OVCAR-3 > 100 µM | DU-145 > 100 µM

CC12Nc3c(Cl)cc(Cl)cc3N1C(=O)c1ccccc12 (stereo unspecified)
inactive: MDA-MB-231 > 100 µM | A498 18.5 µM | HOP-62 > 100 µM | TK-10 42.2 µM | SK-MEL-28 > 100 µM | HCC 2998 > 100 µM | BT-549 71.6 µM | SK-OV-3 > 100 µM | SF-268 > 100 µM | HCT-116 > 100 µM | LOX IMVI 96.6 µM | MCF7 > 100 µM | 786-0 > 100 µM | SK-MEL-5 > 100 µM | CAKI-1 > 100 µM | U-251 > 100 µM | ACHN > 100 µM | OVCAR-3 > 100 µM | DU-145 > 100 µM

O=c1c2ccccc2n2n1Cc1ccccc1C2
inactive: MDA-MB-231 > 100 µM | A498 > 100 µM | HOP-62 > 100 µM | TK-10 > 100 µM | SK-MEL-28 > 100 µM | HCC 2998 > 100 µM | BT-549 > 100 µM | SK-OV-3 > 100 µM | SF-268 > 100 µM | HCT-116 > 100 µM | LOX IMVI > 100 µM | MCF7 > 100 µM | 786-0 > 100 µM | SK-MEL-5 > 100 µM | CAKI-1 > 100 µM | U-251 > 100 µM | ACHN > 100 µM | OVCAR-3 > 100 µM | DU-145 > 100 µM
